From patent US11672811B2, “Materials and methods for suppressing and/or treating bone related diseases and symptoms” (Indiana University Research and Technology Corporation, priority 2017, dated 2023)
Square brackets hold non-standard residues; d marks the D form. Peptide text beside a SMILES is read from it. * marks the point of attachment. ξ: configuration not given here. Cbz = O=C(OCc1ccccc1)*; ξL = CC(C)CC(N)C(=O)O

How the values were obtained:
[1] = test system: Notch target genes; test: Notch target gene mRNA in bone, brain and gut of BT-GSI treated mice; assay type: in vivo; details: compared to vehicle-treated mice
Excerpt: FIG. 2A. Graphs illustrating the effect on Notch target genes.
FIG. 2B. Graphs illustrating the effect on Notch target genes.
(§1) Referring now to FIG. 1A, the control unconjugated GSI decreased Notch target gene expression (Hes1) in 5TGM1 myeloma cells, but BT-GSI-XII had no effect in vitro. […] (FIG. 1E).

[2] = test system: normal 4-month old female mice; test: In vivo administration of BT-GSI-XII to normal mice: tolerability, skin, gut toxicity biomarker
[3] = test system: Notch target genes Hes1/5/7 and Hey1/L; test: Co-administration of BT-GSI with iPTH in mice: Notch target gene expression in bone, brain, gut; assay type: in vivo; details: 2 wks
Procedure: (§2) To investigate whether a combination of iPTH (anabolic) and BT-GSI (anti-catabolic) increases bone mass to a higher extent than either agent alone, BT-GSI (5 mg/kg, 3×/wk) or saline was co-administered with iPTH (100 ng/g/day) or vehicle for 2 wks to 4-mo-old mice (n=10/group).

[4] = test system: Hes1/5 expression; test: Ex vivo whole bone organ cultures, Hes1/5 expression; assay type: cell-based; details: compounds non-pre-incubated
Excerpt: FIG. 1C. A schematic drawing illustrating an exemplary ex vivo system.
as §1

[5] = test system: Notch target gene expression (Hes1); test: Notch target gene expression in 5TGM1 myeloma cells in vitro; assay type: cell-based; details: for inhibition of Notch target gene expression: compounds pre-incubated at low pH to mimic acidic conditions in resorption sites, myeloma cells; for Notch target gene expression (Hes1-Hey1): in vitro, 5TGM1 myeloma cells, not pre-incubated
Excerpt: FIG. 1A. Graphs illustrating the effect on Notch target gene expression. In vitro, the control unconjugated GSI decreased Notch target gene expression (Hes1-Hey1) but BT-GSI-XII had no effect.
FIG. 1B. A graph illustrating the effect on Notch target gene expression.
as §1

[6] = test system: normal 4-month old female mice; test: In vivo administration of BT-GSI-XII to normal mice: BMD, microCT, serum bone markers, osteoclasts/osteoblasts, bone cytokine and osteoblast marker mRNA
Excerpt: Daily injections of PTH (iPTH) are thought to cause bone anabolism by increasing osteoblast number and function. However, iPTH can also increase bone resorption, which can limit bone gain. iPTH activates Notch signaling in osteocytes; and bone-targeted Notch inhibition using a γ-secretase inhibitor (GSI) conjugated to an alendronate-modified bone-targeting molecule (BT-GSI) decreases Notch signaling in bone, and reduces CTX (−40%) while preserving bone formation, leading to increases in BMD (4-7%) and cancellous bone volume (BV/TV; 30%).

[7] = test system: 4-mo-old mice; test: Co-administration of BT-GSI with daily PTH injections (iPTH) in mice: bone mass, resorption and formation; assay type: in vivo
Procedure: as §2
(§3) No changes were found in M-Csf expression. Additionally, unconjugated GSI reduced Rankl-induced osteoclast differentiation in vitro with an EC50˜0.1 μM (FIG. 12D). Further, the bone-targeting molecule alone required a dose 10 times higher than GSI to decreased osteoclastogenesis. Referring now to FIG. 13, co-administration of BT-GSI decreased iPTH-induced elevated serum P1NP (e.g., about 30% decrease); however, the co-administration of BT-GSI maintained the iPTH-induced elevated bone formation rate (20%) and osteoblast number/surface (20%) in cancellous bone (FIG. 13B-C). Further, mice receiving iPTH alone or combined with BT-GSI induced elevated mRNA levels of Alp1, Runx2, Bglap, and Wnt target genes, and reduced mRNA level of Sost in bone (FIG. 13 D-E).

[8] = test system: Rankl-induced osteoclast differentiation; test: Rankl-induced osteoclast differentiation in vitro; assay type: cell-based; details: read-out: EC50, reduction of Rankl-induced osteoclast differentiation
Procedure: as §3

[9] = 5 μg/g, 3×wk, 2 weeks, normal 4-month old female mice
[10] = single agent (iPTH 100 ng/g/day or BT-GSI 5 mg/kg 3×/wk)
[11] = serum, 5 μg/g, 3×wk, 2 weeks, mice
[12] = BT-GSI 5 mg/kg 3×/wk co-administered with iPTH, 2 wks
[13] = BT-GSI co-administered with iPTH
[14] = BT-GSI co-administered with iPTH, cancellous bone

CC[C@H](C)[C@H](NC(=O)OCc1ccccc1)C(=O)NC(/C=N/N(C)CCCC(=O)NC(P(=O)(O)O)P(=O)(O)O)CC(C)C (stereo partly drawn) [BT-GSI-XII]
Notch target gene mRNA expression in brain or gut ([1]; brain, gut): not in brain or gut
Notch target gene (Hey2, Hes5, Hes7, HeyL) mRNA expression in bone ([1]; whole bone preparations): decreases
skin issues [2, 9]: no skin issues were observed
tolerability [2, 9]: well tolerated
Apsidin expression in the gut, a biomarker of gastrointestinal toxicity ([2]; treated mice vs vehicle, gut): did not increase
iPTH-induced elevated expression of Hes1/5/7 and Hey1/L in bone ([3]; BT-GSI 5 mg/kg 3×/wk co-administered with iPTH 100 ng/g/day): decreased the iPTH-induced elevated expression of Hes1/5/7 and Hey1/L to a level comparable to the control mice
expression of Notch target genes in brain or gut [3, 10]: remained unchanged
expression of Notch target genes in brain or gut ([3]; the combination of iPTH and BT-GSI): remained unchanged
Hes1/5 expression [4]: similarly decreased
inhibition of Notch target gene expression [5]: equal inhibition
Notch target gene expression (Hes1-Hey1) [5]: no effect
higher femoral BMD compared to control mice ([6]; 5 μg/g, 3×wk, 2 weeks, mice): 4%
higher spinal BMD compared to control mice ([6]; 5 μg/g, 3×wk, 2 weeks, mice): 7%
higher total BMD compared to control mice ([6]; 5 μg/g, 3×wk, 2 weeks, mice): 3%
increased cancellous bone volume (BV/TV) compared to vehicle-treated mice ([6]; microCT analysis): 25%
increased trabecular thickness compared to vehicle-treated mice ([6]; microCT analysis): 10%
increased cancellous bone volume (BV/TV) compared to vehicle-treated mice ([6]; microCT analysis, listed as BT-GSI): 30%
circulating levels of the bone formation marker P1NP [6, 11]: did not affect
decrease of serum CTX, a marker of bone resorption [6, 11]: 40%
increases in BMD ([6]; summary statement, sites not named): 4-7%
bone formation and mineral apposition rates ([6]; treated mice): remained unchanged
decrease in the bone surface covered by osteoclasts compared to control mice ([6]; treated mice): 50%
number of osteoblasts ([6]; treated mice): remained unchanged
Opg mRNA expression in bone ([6]; treated mice vs vehicle): increased
Rankl/Opg ratio in bone ([6]; treated mice vs vehicle): decreasing
Opg mRNA expression in bone ([6]; treated mice vs vehicle, listed as BT-GSI): upregulated
expression of osteoblast markers, including Wnt target genes and the osteocyte-derived Sost/Sclerostin ([6]; treated mice, bone): remained unchanged
bone formation and mineral apposition rates ([6]; treated mice, listed as BT-GSI): preserving
increase in femoral BMD [7, 12]: 17%
increase in spinal BMD [7, 12]: 7%
increase in total BMD [7, 12]: 10%
additional increase in cancellous BV/TV (L4 and distal femur) compared to the iPTH-induced increase [7, 13]: 25%
additional increase in trabecular thickness compared to the iPTH-induced increase [7, 13]: 25%
decrease of iPTH-induced elevated serum P1NP [7, 13]: about 30%
effect on iPTH-induced increase in cortical bone area [7, 13]: did not alter
iPTH-induced elevated Rankl/Opg expression ratio in bone [7, 13]: remained unchanged
serum CTX level [7, 13]: less than those exhibited in control mice
iPTH-induced elevated bone formation rate [7, 14]: maintained
iPTH-induced elevated osteoblast number/surface [7, 14]: maintained
osteoclast number/surface level [7, 14]: less than those exhibited in control mice
mRNA level of Sost in bone ([7]; iPTH combined with BT-GSI): reduced
mRNA levels of Alp1, Runx2, Bglap, and Wnt target genes in bone ([7]; iPTH combined with BT-GSI): elevated

CC[C@H](C)[C@H](NC(=O)OCc1ccccc1)C(=O)N[C@H](C=O)CC(C)C [GSI-XII, reference compound] (Cbz-Ile-Leu-aldehyde)
EC50 [8]: ~100 nM
Notch target gene expression (Hes1-Hey1) [5]: decreased

CC[C@H](C)[C@H](NC(=O)OCc1ccccc1)C(=O)NC(C=O)CC(C)C (stereo partly drawn) [GSI-XII, reference compound] (Cbz-Ile-[ξL]-aldehyde)
Hes1/5 expression [4]: similarly decreased
inhibition of Notch target gene expression [5]: equal inhibition

B1: iPTH: daily injections of PTH (parathyroid hormone) (protein, UniProt P01270 32-115, looked up)
Parathyroid hormone: SVSEIQLMHNLGKHLNSMERVEWLRKKLQDVHNFVALGAPLAPRDAGSQRPRKKEDNVLVESHEKSLGEADKADVNVLTKAKSQ
modifications: Parathyroid hormone
expression of the Notch target genes Hes1/5/7 and Hey1/L in bone ([3]; iPTH 100 ng/g/day alone): increased
expression of Notch target genes in brain or gut [3, 10]: remained unchanged
increase in femoral BMD ([7]; iPTH 100 ng/g/day alone, 2 wks): 13%
increase in total BMD ([7]; iPTH 100 ng/g/day alone, 2 wks): 7%
spinal BMD change ([7]; iPTH 100 ng/g/day alone, 2 wks): 0%
iPTH-induced elevated Rankl/Opg expression ratio in bone ([7]; iPTH alone): 1.5 fold
iPTH-induced elevated serum CTX ([7]; iPTH alone): 30%
iPTH-induced increase in cortical bone area ([7]; iPTH alone): 8%
mRNA level of Sost in bone ([7]; iPTH alone): reduced
mRNA levels of Alp1, Runx2, Bglap, and Wnt target genes in bone ([7]; iPTH alone): elevated
serum P1NP ([7]; iPTH alone): elevated
iPTH-induced elevated bone formation rate ([7]; iPTH alone, cancellous bone): 20%
iPTH-induced elevated osteoblast number/surface ([7]; iPTH alone, cancellous bone): 20%
iPTH-induced elevated osteoclast number/surface ([7]; iPTH alone, cancellous bone): 25%
